The record followed here is patent publication US9593108B2, “Compounds and methods for antiviral treatment” (PTC Therapeutics, Inc., priority 2009, dated 2017).

The term IC50 denotes the concentration that gives 50% inhibition. Read a low IC50 as higher potency.

The experiment has as its system HCV replicon RNA (GenBank Accession No. AJ242654). Briefly: HCV Replicon Assay (replicon RNA reduction and/or Fluc reporter signal). Format: cell-based, Hepatitis C virus. The settings on record: replicon-containing cells cultured with test compound for up to 3 days. The text has this: The lack of reliable and readily accessible cell-culture and small animal models permissive for HCV replication has limited the development of new anti-HCV agents. Self-replicating subgenomic HCV systems, termed HCV replicons, have been described and have been widely used to assess the efficacy of anti-HCV inhibitors (see Blight K J, et al., 2000, Efficient initiation of HCV RNA replication in cell culture. Science 290:1972-1974; Blight K J, et al., 2002, Highly permissive cell lines for subgenomic and genomic hepatitis C virus RNA replication. J Virol 76:13001-13014; Ikeda M, et al., 2002. Selectable subgenomic and genome-length dicistronic RNAs derived from an infectious molecular clone of the HCV-N strain of hepatitis C virus replicate efficiently in cultured Huh7 cells. J Virol 76:2997-3006; Lohmann V, et al., 1999, Replication of subgenomic hepatitis C virus RNAs in a hepatoma cell line. Science 285:110-113; Pietschmann T, et al., 2002, Persistent and transient replication of full-length hepatitis C virus genomes in cell culture. J Virol 76:4008-4021; and, Pietschmann T, et al., 2001, Characterization of cell lines carrying self-replicating hepatitis C virus RNAs. J Virol 75:1252-1264).
As described in U.S. Pat. No. 6,630,343, HCV inhibitors are analyzed in the bicistronic replicon by quantitating replicon RNA (GenBank Accession No. AJ242654) reduction and/or the Fluc reporter signal. Replicon-containing cells may be cultured with a test compound of the present invention for up to 3 days. Interferon (IFN) is used as a positive control. In general, the replicon IC50 values shown in Table 1 represent IC50 values determined by replicon RNA reduction.
In general terms: A replicon is a self-replicating genome or part of one, used to study replication in cells.

With “6-(3,6-dicyano-1-cyclobutyl-1H-pyrrolo[2,3-b]pyridin-2-yl)-N-[(2S)-1,1,1-trifluoropropan-2-yl]pyridine-3-sulfonamide [Cpd 241]”, the IC50 is below 500 nM. `COc1ccc2c(n1)c(C#N)c(-c1ccc(S(=O)(=O)N[C@@H](C)C(F)(F)F)cn1)n2C1CCC1` [Cpd 20, 6-(3-cyano-1-cyclobutyl-5-methoxy-1H-pyrrolo[3,2-b]pyridin-2-yl)-N-[(2S)-1,1,1-trifluoropropan-2-yl]pyridine-3-sulfonamide] displayed a half-maximal inhibitory concentration (IC50) (Hepatitis C virus, 72 h) of 500 to 2000 nM. For the compound `COc1cnc2c(c1)c(C#N)c(-c1ccc(S(=O)(=O)N[C@@H](C)C(F)(F)F)cn1)n2C1CCC1` [Cpd 22, 6-(3-cyano-1-cyclobutyl-5-methoxy-1H-pyrrolo[2,3-b]pyridin-2-yl)-N-[(2S)-1,1,1-trifluoropropan-2-yl]pyridine-3-sulfonamide], the IC50 (Hepatitis C virus, 72 h) lay within 500 to 2000 nM.

On to `COc1ncc2c(C#N)c(-c3ccc(S(=O)(=O)N[C@@H](C)C(F)(F)F)cn3)n(C3CCC3)c2n1` [Cpd 38, 6-(5-cyano-7-cyclobutyl-2-methoxy-7H-pyrrolo[2,3-d]pyrimidin-6-yl)-N-[(2S)-1,1,1-trifluoropropan-2-yl]pyridine-3-sulfonamide], for which the IC50 (Hepatitis C virus, 72 h) is below 500 nM. The same measure, in the same setting: under `COc1ncc2c(C#N)c(-c3ccc(S(=O)(=O)N[C@H](C)C(F)(F)F)cn3)n(C3CCC3)c2n1` [Cpd 39, 6-(5-cyano-7-cyclobutyl-2-methoxy-7H-pyrrolo[2,3-d]pyrimidin-6-yl)-N-[(2R)-1,1,1-trifluoropropan-2-yl]pyridine-3-sulfonamide] stands 2000 to 5000 nM; under `COc1ccc2c(C#N)c(-c3ccc(S(=O)(=O)NC(CF)CF)cc3)n(C3CCC3)c2n1` [Cpd 43, 4-(3-cyano-1-cyclobutyl-6-methoxy-1H-pyrrolo[2,3-b]pyridin-2-yl)-N-(1,3-difluoropropan-2-yl)benzenesulfonamide], below 500 nM; under `COc1cnc2c(c1)c(C#N)c(-c1ccc(S(=O)(=O)N[C@H](C)C(F)(F)F)cn1)n2C1CCC1` [Cpd 48, 6-(3-cyano-1-cyclobutyl-5-methoxy-1H-pyrrolo[2,3-b]pyridin-2-yl)-N-[(2R)-1,1,1-trifluoropropan-2-yl]pyridine-3-sulfonamide], below 500 nM. Still for that read-out and setting: under `Cc1ccc2c(C#N)c(-c3ccc(S(=O)(=O)N[C@H](C)C(F)(F)F)cc3)n(C3CCC3)c2n1` [Cpd 91, 4-(3-cyano-1-cyclobutyl-6-methyl-1H-pyrrolo[2,3-b]pyridin-2-yl)-N-[(2R)-1,1,1-trifluoropropan-2-yl]benzenesulfonamide] stands below 500 nM. Same read-out and setting: in the case of `Cc1ccc2c(C#N)c(-c3ccc(S(=O)(=O)N[C@@H](C)C(F)(F)F)cn3)n(C3CCC3)c2n1` [Cpd 92, 6-(3-cyano-1-cyclobutyl-6-methyl-1H-pyrrolo[2,3-b]pyridin-2-yl)-N-[(2S)-1,1,1-trifluoropropan-2-yl]pyridine-3-sulfonamide] it was below 500 nM; in that of `Cc1ccc2c(C#N)c(-c3ccc(S(=O)(=O)N[C@H](C)C(F)(F)F)cn3)n(C3CCC3)c2n1` [Cpd 93, 6-(3-cyano-1-cyclobutyl-6-methyl-1H-pyrrolo[2,3-b]pyridin-2-yl)-N-[(2R)-1,1,1-trifluoropropan-2-yl]pyridine-3-sulfonamide], below 500 nM; in that of `Cc1ccc2c(C#N)c(-c3ncc(S(=O)(=O)NC(C)C)cn3)n(C3CCC3)c2n1` [Cpd 95, 2-(3-cyano-1-cyclobutyl-6-methyl-1H-pyrrolo[2,3-b]pyridin-2-yl)-N-(propan-2-yl)pyrimidine-5-sulfonamide], 500 to 2000 nM. As for `C[C@@H](NS(=O)(=O)c1cnc(-c2c(C#N)c3cc(C4CC4)cnc3n2C2CCC2)nc1)C(F)(F)F` [Cpd 120, 2-(3-cyano-1-cyclobutyl-5-cyclopropyl-1H-pyrrolo[2,3-b]pyridin-2-yl)-N-[(2R)-1,1,1-trifluoropropan-2-yl]pyrimidine-5-sulfonamide], the IC50 (Hepatitis C virus, 72 h) was below 500 nM. On the same count and under the same terms, in the case of `N#Cc1c(-c2ccc(S(=O)(=O)NC3(C(F)(F)F)CC3)cc2)n(C2CCC2)c2ncc(C3CC3)cc12` [Cpd 123, 4-(3-cyano-1-cyclobutyl-5-cyclopropyl-1H-pyrrolo[2,3-b]pyridin-2-yl)-N-[1-(trifluoromethyl)cyclopropyl]benzenesulfonamide] it was below 500 nM; in that of `CC(C)(C)NS(=O)(=O)c1ccc(-c2c(C#N)c3cc(C4CC4)cnc3n2C2CCC2)nc1` [Cpd 126, N-tert-butyl-6-(3-cyano-1-cyclobutyl-5-cyclopropyl-1H-pyrrolo[2,3-b]pyridin-2-yl)pyridine-3-sulfonamide], below 500 nM; in that of `N#Cc1c(-c2ccc(S(=O)(=O)NC(CF)CF)cn2)n(C2CCC2)c2ncc(C3CC3)cc12` [Cpd 131, 6-(3-cyano-1-cyclobutyl-5-cyclopropyl-1H-pyrrolo[2,3-b]pyridin-2-yl)-N-(1,3-difluoropropan-2-yl)pyridine-3-sulfonamide], below 500 nM.

For `CC(C)NS(=O)(=O)c1ccc(-c2c(C#N)c3cc(C4CC4)cnc3n2C2CCC2)cn1` [Cpd 135, 5-(3-cyano-1-cyclobutyl-5-cyclopropyl-1H-pyrrolo[2,3-b]pyridin-2-yl)-N-(propan-2-yl)pyridine-2-sulfonamide], the IC50 (Hepatitis C virus, 72 h) is below 500 nM.

Under “Hepatitis C virus, 72 h”, `Cc1ccc2c(C#N)c(-c3ccc(S(=O)(=O)NC(C)(C)C(F)(F)F)cc3)n(C3CCC3)c2n1` [Cpd 139, 4-(3-cyano-1-cyclobutyl-6-methyl-1H-pyrrolo[2,3-b]pyridin-2-yl)-N-(1,1,1-trifluoro-2-methylpropan-2-yl)benzenesulfonamide] gave an IC50 of 500 to 2000 nM. The same measure, in the same setting: under `C[C@H](NS(=O)(=O)c1ccc(-c2c(C#N)c3ccc(C4CC4)nc3n2C2CCC2)cc1)C(F)(F)F` [Cpd 149, 4-(3-cyano-1-cyclobutyl-6-cyclopropyl-1H-pyrrolo[2,3-b]pyridin-2-yl)-N-[(2S)-1,1,1-trifluoropropan-2-yl]benzenesulfonamide] stands below 500 nM; under `C[C@@H](NS(=O)(=O)c1ccc(-c2c(C#N)c3ccc(C4CC4)nc3n2C2CCC2)cc1)C(F)(F)F` [Cpd 150, 4-(3-cyano-1-cyclobutyl-6-cyclopropyl-1H-pyrrolo[2,3-b]pyridin-2-yl)-N-[(2R)-1,1,1-trifluoropropan-2-yl]benzenesulfonamide], below 500 nM; under `C[C@H](NS(=O)(=O)c1cnc(-c2c(C#N)c3ccc(C4CC4)nc3n2C2CCC2)nc1)C(F)(F)F` [Cpd 153, 2-(3-cyano-1-cyclobutyl-6-cyclopropyl-1H-pyrrolo[2,3-b]pyridin-2-yl)-N-[(2S)-1,1,1-trifluoropropan-2-yl]pyrimidine-5-sulfonamide], below 500 nM. Still for that read-out and setting: under `CCc1cnc2c(c1)c(C#N)c(-c1ccc(S(=O)(=O)N[C@@H](C)C(F)(F)F)cn1)n2C1CCC1` [Cpd 157, 6-(3-cyano-1-cyclobutyl-5-ethyl-1H-pyrrolo[2,3-b]pyridin-2-yl)-N-[(2S)-1,1,1-trifluoropropan-2-yl]pyridine-3-sulfonamide] stands below 500 nM; under `CCc1cnc2c(c1)c(C#N)c(-c1ccc(S(=O)(=O)N[C@H](C)C(F)(F)F)cn1)n2C1CCC1` [Cpd 158, 6-(3-cyano-1-cyclobutyl-5-ethyl-1H-pyrrolo[2,3-b]pyridin-2-yl)-N-[(2R)-1,1,1-trifluoropropan-2-yl]pyridine-3-sulfonamide], below 500 nM; under `CCc1cnc2c(c1)c(C#N)c(-c1ncc(S(=O)(=O)N[C@@H](C)C(F)(F)F)cn1)n2C1CCC1` [Cpd 159, 2-(3-cyano-1-cyclobutyl-5-ethyl-1H-pyrrolo[2,3-b]pyridin-2-yl)-N-[(2S)-1,1,1-trifluoropropan-2-yl]pyrimidine-5-sulfonamide], below 500 nM. `CCc1cnc2c(c1)c(C#N)c(-c1ncc(S(=O)(=O)N[C@H](C)C(F)(F)F)cn1)n2C1CCC1` [Cpd 160, 2-(3-cyano-1-cyclobutyl-5-ethyl-1H-pyrrolo[2,3-b]pyridin-2-yl)-N-[(2R)-1,1,1-trifluoropropan-2-yl]pyrimidine-5-sulfonamide] returned an IC50 (Hepatitis C virus, 72 h) below 500 nM. In the case of `CCc1cnc2c(c1)c(C#N)c(-c1ccc(S(=O)(=O)NC(C)(C)C)cn1)n2C1CCC1` [Cpd 186, N-tert-butyl-6-(3-cyano-1-cyclobutyl-5-ethyl-1H-pyrrolo[2,3-b]pyridin-2-yl)pyridine-3-sulfonamide], under “Hepatitis C virus, 72 h”, the IC50 is below 500 nM.

The compound `CCc1cnc2c(c1)c(C#N)c(-c1ccc(S(=O)(=O)NC3(C)CC3)cn1)n2C1CCC1` [Cpd 188, 6-(3-cyano-1-cyclobutyl-5-ethyl-1H-pyrrolo[2,3-b]pyridin-2-yl)-N-(1-methylcyclopropyl)pyridine-3-sulfonamide] yielded an IC50 (Hepatitis C virus, 72 h) below 500 nM. Still for that read-out and setting: in the case of `CCc1cnc2c(c1)c(C#N)c(-c1ncc(S(=O)(=O)NC3(C)CC3)cn1)n2C1CCC1` [Cpd 189, 2-(3-cyano-1-cyclobutyl-5-ethyl-1H-pyrrolo[2,3-b]pyridin-2-yl)-N-(1-methylcyclopropyl)pyrimidine-5-sulfonamide] it was below 500 nM.
